In patent US9636418B2 (priority 2013, dated 2017):
Values joined by “and” are separate entries in the source; they are usually repeats but may differ in a detail not shown here. Equal values may be shown once. “Also recorded” adds a separate entry of the source. Read-outs that look alike come from different tables or passages of the source.

Legend:
[1] = system: central neuronal sodium channels in rat hippocampus neurons; details: cited from earlier work
mice = details: mouse, in vivo; cited from earlier work
hNav1.7 [2] = biological target: T1, hNav1.7 (Homo sapiens, UniProt Q15858); test: cell-based; details: IonWorks Quattro; read-out: IC50 Nav1.7
T1 sequence (Q15858 whole entry): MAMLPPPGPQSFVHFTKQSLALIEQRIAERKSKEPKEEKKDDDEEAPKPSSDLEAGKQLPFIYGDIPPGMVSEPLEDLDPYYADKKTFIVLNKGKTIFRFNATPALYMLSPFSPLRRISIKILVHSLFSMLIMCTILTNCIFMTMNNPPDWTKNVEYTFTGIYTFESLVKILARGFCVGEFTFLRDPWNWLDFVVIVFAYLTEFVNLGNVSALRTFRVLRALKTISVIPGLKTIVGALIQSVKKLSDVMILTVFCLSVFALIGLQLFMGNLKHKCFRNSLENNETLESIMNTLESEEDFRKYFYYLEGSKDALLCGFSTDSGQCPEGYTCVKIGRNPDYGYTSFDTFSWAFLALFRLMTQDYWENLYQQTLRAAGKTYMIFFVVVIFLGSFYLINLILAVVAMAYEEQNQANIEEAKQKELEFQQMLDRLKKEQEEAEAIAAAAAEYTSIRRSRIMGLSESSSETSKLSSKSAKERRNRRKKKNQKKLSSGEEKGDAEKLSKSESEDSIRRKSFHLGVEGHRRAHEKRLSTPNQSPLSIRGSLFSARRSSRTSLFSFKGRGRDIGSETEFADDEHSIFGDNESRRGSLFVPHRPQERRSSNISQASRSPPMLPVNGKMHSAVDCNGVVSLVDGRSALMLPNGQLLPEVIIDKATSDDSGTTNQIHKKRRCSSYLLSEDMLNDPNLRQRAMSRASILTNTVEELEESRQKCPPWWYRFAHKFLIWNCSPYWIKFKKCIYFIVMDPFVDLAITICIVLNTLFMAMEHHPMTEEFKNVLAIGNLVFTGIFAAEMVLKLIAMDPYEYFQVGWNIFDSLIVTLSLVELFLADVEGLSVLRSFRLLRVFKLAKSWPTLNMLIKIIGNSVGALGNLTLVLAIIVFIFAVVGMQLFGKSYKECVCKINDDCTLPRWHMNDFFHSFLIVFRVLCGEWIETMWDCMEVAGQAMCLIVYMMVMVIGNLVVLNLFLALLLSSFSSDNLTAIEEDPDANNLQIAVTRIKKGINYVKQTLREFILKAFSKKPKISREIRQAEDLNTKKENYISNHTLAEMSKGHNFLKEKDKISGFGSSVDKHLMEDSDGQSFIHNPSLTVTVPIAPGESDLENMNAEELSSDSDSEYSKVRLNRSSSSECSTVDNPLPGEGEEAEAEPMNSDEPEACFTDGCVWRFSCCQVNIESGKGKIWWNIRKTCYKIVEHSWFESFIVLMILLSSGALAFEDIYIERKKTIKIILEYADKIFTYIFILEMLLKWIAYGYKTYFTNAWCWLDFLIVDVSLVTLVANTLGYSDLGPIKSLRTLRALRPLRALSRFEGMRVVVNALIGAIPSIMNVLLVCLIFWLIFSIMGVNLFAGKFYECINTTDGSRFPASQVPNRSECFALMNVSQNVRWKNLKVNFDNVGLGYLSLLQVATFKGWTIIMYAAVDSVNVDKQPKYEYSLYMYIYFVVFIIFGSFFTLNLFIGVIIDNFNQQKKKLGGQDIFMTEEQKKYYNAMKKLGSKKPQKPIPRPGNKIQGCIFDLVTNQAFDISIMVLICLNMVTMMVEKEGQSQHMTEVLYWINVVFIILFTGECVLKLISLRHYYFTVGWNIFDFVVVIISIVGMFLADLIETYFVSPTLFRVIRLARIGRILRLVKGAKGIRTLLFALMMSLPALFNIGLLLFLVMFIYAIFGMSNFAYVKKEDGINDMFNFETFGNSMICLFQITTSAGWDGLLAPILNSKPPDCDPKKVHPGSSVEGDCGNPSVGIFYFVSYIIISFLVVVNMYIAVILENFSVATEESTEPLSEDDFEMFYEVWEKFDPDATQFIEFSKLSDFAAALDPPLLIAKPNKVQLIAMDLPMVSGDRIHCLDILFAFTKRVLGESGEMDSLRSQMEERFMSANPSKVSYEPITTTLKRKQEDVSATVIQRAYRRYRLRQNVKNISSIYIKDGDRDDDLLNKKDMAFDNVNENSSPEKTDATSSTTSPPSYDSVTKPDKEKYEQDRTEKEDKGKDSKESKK

hNav1.5 [3] = biological target: T2, hNav1.5 (Homo sapiens, UniProt Q14524); test: cell-based; details: IonWorks Quattro; read-out: IC50 Nav1.5
hNav1.4 [4] = biological target: T3, hNav1.4 (Homo sapiens, UniProt P35499); test: cell-based; details: for IC50: IonWorks Quattro, read-out: IC50 Nav1.4
hNav1.3 [5] = biological target: T4, hNav1.3 (Homo sapiens, UniProt Q9NY46); test: cell-based; details: IonWorks Quattro; read-out: IC50 Nav1.3
T4 sequence (Q9NY46 whole entry): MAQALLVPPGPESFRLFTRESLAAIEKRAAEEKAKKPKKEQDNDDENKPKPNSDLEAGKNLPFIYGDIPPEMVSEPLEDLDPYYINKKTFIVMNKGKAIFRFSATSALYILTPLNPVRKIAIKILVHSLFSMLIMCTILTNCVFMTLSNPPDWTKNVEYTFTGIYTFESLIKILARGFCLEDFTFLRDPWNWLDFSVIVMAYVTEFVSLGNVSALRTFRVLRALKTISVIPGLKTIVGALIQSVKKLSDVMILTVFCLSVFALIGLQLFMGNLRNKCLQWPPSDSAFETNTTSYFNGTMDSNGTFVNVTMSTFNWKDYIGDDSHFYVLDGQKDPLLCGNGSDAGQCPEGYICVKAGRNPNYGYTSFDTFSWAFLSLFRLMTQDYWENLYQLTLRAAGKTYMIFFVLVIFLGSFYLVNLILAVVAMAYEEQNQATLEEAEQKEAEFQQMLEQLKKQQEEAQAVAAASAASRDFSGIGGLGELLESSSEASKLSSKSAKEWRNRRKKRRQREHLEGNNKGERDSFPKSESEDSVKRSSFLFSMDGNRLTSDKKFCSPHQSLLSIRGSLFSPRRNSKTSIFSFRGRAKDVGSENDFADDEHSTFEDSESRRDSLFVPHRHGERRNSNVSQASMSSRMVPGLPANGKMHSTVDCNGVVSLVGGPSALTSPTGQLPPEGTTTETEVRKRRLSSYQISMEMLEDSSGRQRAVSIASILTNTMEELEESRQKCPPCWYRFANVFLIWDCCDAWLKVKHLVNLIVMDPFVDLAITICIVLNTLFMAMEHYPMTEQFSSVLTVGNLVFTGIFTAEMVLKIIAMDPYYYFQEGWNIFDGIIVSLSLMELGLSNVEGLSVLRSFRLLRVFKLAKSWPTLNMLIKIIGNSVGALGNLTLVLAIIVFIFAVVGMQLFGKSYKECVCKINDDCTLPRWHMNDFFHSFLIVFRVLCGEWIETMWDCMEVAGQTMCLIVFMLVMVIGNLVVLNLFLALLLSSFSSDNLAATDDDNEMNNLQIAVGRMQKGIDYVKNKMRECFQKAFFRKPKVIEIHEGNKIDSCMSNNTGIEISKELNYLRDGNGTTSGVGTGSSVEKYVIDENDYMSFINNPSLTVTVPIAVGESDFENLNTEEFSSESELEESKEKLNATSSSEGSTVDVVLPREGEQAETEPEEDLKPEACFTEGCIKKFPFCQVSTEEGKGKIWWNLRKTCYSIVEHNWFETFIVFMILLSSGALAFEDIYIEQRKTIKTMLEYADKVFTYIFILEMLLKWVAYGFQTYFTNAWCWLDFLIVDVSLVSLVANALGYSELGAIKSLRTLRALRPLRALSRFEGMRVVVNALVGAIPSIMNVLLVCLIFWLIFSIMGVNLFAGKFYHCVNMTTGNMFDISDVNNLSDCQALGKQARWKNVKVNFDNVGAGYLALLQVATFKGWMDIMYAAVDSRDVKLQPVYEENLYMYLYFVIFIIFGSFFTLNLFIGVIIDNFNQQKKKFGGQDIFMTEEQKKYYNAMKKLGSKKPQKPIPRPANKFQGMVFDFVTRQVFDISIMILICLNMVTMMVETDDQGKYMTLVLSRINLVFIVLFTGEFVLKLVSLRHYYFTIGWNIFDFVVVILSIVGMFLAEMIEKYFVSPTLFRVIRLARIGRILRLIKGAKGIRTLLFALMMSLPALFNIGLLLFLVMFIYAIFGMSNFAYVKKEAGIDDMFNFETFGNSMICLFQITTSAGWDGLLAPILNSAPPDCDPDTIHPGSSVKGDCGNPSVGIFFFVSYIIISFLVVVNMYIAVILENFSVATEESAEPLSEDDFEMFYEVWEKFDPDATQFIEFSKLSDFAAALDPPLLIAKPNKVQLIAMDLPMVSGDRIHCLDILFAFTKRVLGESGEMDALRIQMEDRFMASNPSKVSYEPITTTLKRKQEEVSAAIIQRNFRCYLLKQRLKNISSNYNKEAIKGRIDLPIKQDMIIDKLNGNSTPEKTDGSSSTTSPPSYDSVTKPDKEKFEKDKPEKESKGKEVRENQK

hNav1.7 [6] = biological target: T1, hNav1.7; test: cell-based; assay type: cell-based; details: PatchXpress; * = at high concentrations compound would wash off slowly or not at all; read-out: PX hNav1.7 Tonic IC50
hNav1.4 [7] = biological target: T3, hNav1.4; test: cell-based; details: PatchXpress; * = at high concentrations compound would wash off slowly or not at all; read-out: PX hNav1.4 Tonic IC50
hNav1.5 [8] = biological target: T2, hNav1.5; test: cell-based; details: PatchXpress; * = at high concentrations compound would wash off slowly or not at all; read-out: PX hNav1.5 Tonic IC50
[9] = mouse plasma, 37° C., incubation time 0 hr (normalisation point)
[10] = rat plasma, 37° C., incubation time 0 hr (normalisation point)
in vitro [11] = details: mouse, plasma
in vitro [12] = details: rat, plasma
hNav1.7 [13] = biological target: T1, hNav1.7; test: cell-based; assay type: cell-based
[14] = system: TTX-sensitive Nav channels in mouse DRG neuron; assay type: cell-based
hNav1.8 = hNav1.8 (Homo sapiens, UniProt Q9Y5Y9); test: cell-based; assay type: cell-based
hNav1.5 [15] = biological target: T2, hNav1.5; test: cell-based; assay type: cell-based
hNav1.4 [16] = biological target: T3, hNav1.4; assay type: cell-based
hNav1.3 [17] = biological target: T4, hNav1.3; assay type: cell-based
[18] = system: TTX-resistant Nav channels in mouse DRG neuron; assay type: cell-based
[19] = in vivo; cited from earlier work
[20] = human plasma, 37° C., incubation 0 hr
[21] = cyno plasma, 37° C., incubation 0 hr
in vitro [22] = details: human, plasma
in vitro [23] = details: monkey, plasma

Compound: Huwentoxin-IV [SEQ ID NO: 528]
- less potent against central neuronal sodium channels [1]: 12 fold

Compound: μ-Conotoxin KIIIA [SEQ ID NO: 530]
- motor impairment (mice): some motor impairment but not paralytic activity

Compound: CC[C@H](C)[C@H](NC(=O)[C@H](CO)NC(=O)[C@H](CCCCN)NC(=O)[C@H](CCCNC(=N)N)NC(=O)[C@@H]1CSSC[C@@H]2NC(=O)[C@H](C)NC(=O)[C@H](CCCNC(=N)N)NC(=O)[C@H](CCCCN)NC(=O)[C@H](CO)NC(=O)[C@H](CC(=O)O)NC(=O)[C@@H]3CSSC[C@H](NC(=O)[C@H](CCC(=O)O)NC(=O)[C@H](CC(C)C)NC(=O)CNC(=O)[C@H](CCC(=O)O)NC(=O)[C@H](CSSC[C@H](NC(=O)[C@@H](N)Cc4ccc(O)cc4)C(=O)N[C@@H](CCC(N)=O)C(=O)N[C@@H](CCCCN)C(=O)N[C@@H](Cc4c[nH]c5ccccc45)C(=O)N[C@@H](CCSC)C(=O)N[C@@H](Cc4c[nH]c5ccccc45)C(=O)N[C@@H]([C@@H](C)O)C(=O)N3)NC2=O)C(=O)N[C@@H](CCCCN)C(=O)N[C@@H](CC(C)C)C(=O)N[C@@H](Cc2c[nH]c3ccccc23)C(=O)N1)C(N)=O [compound 138]
- IC50 (hNav1.7 [2]): 80 nM and 150 nM
- IC50 (hNav1.5 [3]): 13900 nM and 9200 nM
- IC50 (hNav1.4 [4]): > 5000 nM
- Nav1.4/Nav1.7 (hNav1.4 [4]; ratio of IonWorks Quattro IC50 values): 62 and 34
- IC50 (hNav1.3 [5]): > 5000 nM
- IC50 (hNav1.7 [6]): 3.3 nM and 2 nM and 0.4 nM
- IC50 (hNav1.4 [7]): 4790 nM and 3580 nM and 2970 nM
- IC50 (hNav1.5 [8]): > 10000 nM and 14600 nM
- % Peptide Remaining [9]: 100%
- % Peptide Remaining [10]: 100%
- remaining at 2 h (in vitro [11]): 64%
- remaining at 4 h (in vitro [11]): 61%
- remaining at 6 h (in vitro [11]): 55%
- remaining at 8 h (in vitro [11]): 51%
- remaining at 24 h (in vitro [11]): 50%
- remaining at 2 h (in vitro [12]): 90%
- remaining at 4 h (in vitro [12]): 81%
- remaining at 6 h (in vitro [12]): 71%
- remaining at 8 h (in vitro [12]): 67%
- remaining at 24 h (in vitro [12]): 59%

Compound: CC[C@H](C)[C@H](NC(=O)[C@H](CCCCN)NC(=O)[C@H](CCCNC(=N)N)NC(=O)[C@@H]1CSSC[C@@H]2NC(=O)[C@H](C)NC(=O)[C@H](CCCNC(=N)N)NC(=O)[C@H](CCCCN)NC(=O)[C@H](CO)NC(=O)[C@H](CC(=O)O)NC(=O)[C@@H]3CSSC[C@H](NC(=O)[C@H](CCC(=O)O)NC(=O)[C@H](CC(C)C)NC(=O)CNC(=O)[C@H](CCC(=O)O)NC(=O)[C@H](CSSC[C@H](NC(=O)[C@@H](N)Cc4ccc(O)cc4)C(=O)N[C@@H](CCC(N)=O)C(=O)N[C@@H](CCCCN)C(=O)N[C@@H](Cc4c[nH]c5ccccc45)C(=O)N[C@@H](CCSC)C(=O)N[C@@H](Cc4c[nH]c5ccccc45)C(=O)N[C@@H]([C@@H](C)O)C(=O)N3)NC2=O)C(=O)N[C@@H](CCCCN)C(=O)N[C@@H](CC(C)C)C(=O)N[C@@H](Cc2c[nH]c3ccccc23)C(=O)N1)C(=O)N[C@@H](Cc1c[nH]c2ccccc12)C(N)=O [compound 112]
- IC50 (hNav1.7 [2]): 30 nM and 17 nM
- IC50 (hNav1.5 [3]): 6900 nM
- IC50 (hNav1.4 [4]): > 5000 nM
- IC50 (hNav1.3 [5]): 3620 nM
- IC50 (hNav1.7 [6]): 2.8 nM and 0.67 nM and 1.3 nM and 0.5 nM and 1.41 nM and 2.15 nM and 1.82 nM and 2.12 nM
- IC50 (hNav1.4 [7]): 1130 nM and 824 nM and 1050 nM and 1350 nM and 2370 nM
- IC50 (hNav1.5 [8]): 3420 nM and 3950 nM and 4410 nM and 1320 nM and 1620 nM
- IC50 (hNav1.7 [13]; WCPC, hNav1.7, partially inactivated, n=2): 0.23 nM
- 1.x/1.7, partially inactivated (hNav1.7 [13]; hNav1.7 vs hNav1.7, partially inactivated): 1
- 1.x/1.7, partially inactivated [14]: 1213
- 1.x/1.7, partially inactivated ([14]; mTTX-S (fresh DRG) vs hNav1.7, partially inactivated): 917
- % Peptide Remaining [9]: 100%
- % Peptide Remaining [10]: 100%
- remaining at 2 h (in vitro [11]): 88%
- remaining at 4 h (in vitro [11]): 82%
- remaining at 6 h (in vitro [11]): 85%
- remaining at 8 h (in vitro [11]): 85%
- remaining at 24 h (in vitro [11]): 77%
- remaining at 2 h (in vitro [12]): 95%
- remaining at 4 h (in vitro [12]): 93%
- remaining at 6 h (in vitro [12]): 92%
- remaining at 8 h (in vitro [12]): 89%
- remaining at 24 h (in vitro [12]): 70%

Compound: CC[C@H](C)[C@H](NC(=O)[C@@H](NC(=O)[C@H](CCCCN)NC(=O)[C@H](CCCNC(=N)N)NC(=O)[C@@H]1CSSC[C@@H]2NC(=O)[C@H](C)NC(=O)[C@H](CCCNC(=N)N)NC(=O)[C@H](CCCCN)NC(=O)[C@H](CO)NC(=O)[C@H](CC(=O)O)NC(=O)[C@@H]3CSSC[C@H](NC(=O)[C@H](CCCNC(=N)N)NC(=O)[C@H](CC(C)C)NC(=O)CNC(=O)[C@H](CCC(=O)O)NC(=O)[C@H](CSSC[C@H](NC(=O)[C@@H](N)Cc4ccc(O)cc4)C(=O)N[C@@H](CCC(N)=O)C(=O)N[C@@H](CCCCN)C(=O)N[C@@H](Cc4c[nH]c5ccccc45)C(=O)N[C@@H](CCSC)C(=O)N[C@@H](Cc4c[nH]c5ccccc45)C(=O)N[C@@H]([C@@H](C)O)C(=O)N3)NC2=O)C(=O)N[C@@H](CCCCN)C(=O)N[C@@H](CC(C)C)C(=O)N[C@@H](Cc2c[nH]c3ccccc23)C(=O)N1)[C@@H](C)CC)C(N)=O [SEQ ID NO: 2, JzTx-V(1-29), reference compound]
- block of hNav1.7 current (hNav1.7 [13]): blocked all Nav1.7 current
- inhibition of hNav1.7 current (hNav1.7 [13]): complete inhibition
- inhibition of hNav1.8 current (hNav1.8): only partial inhibition
- block of hNav1.5 current (hNav1.5 [15]): blocked most Nav1.5 current; also recorded: nearly complete inhibition
- block of hNav1.4 current (hNav1.4 [16]): completely blocked Nav1.4 current; also recorded: complete inhibition
- block of hNav1.3 current (hNav1.3 [17]): completely blocked Nav1.3 current; also recorded: complete inhibition
- block of TTX-sensitive Nav current [14]: completely blocked TTX-sensitive Nav current; also recorded: blocked nearly all TTX-sensitive Nav current; also recorded: almost complete inhibition
- effect on TTX-resistant Nav current [18]: nominal effect on peak TTX-resistant current but prolonged the level of TTX-resistant current at 40 msec; also recorded: only partial inhibition

Compound: YCQKWMWTCDSERKCCEGMVCRLWCKKKLW [SEQ ID NO: 531, ProTx-II]
- efficacy in mechanical hyperalgesia study [19]: not efficacious

Compound: CC[C@H](C)[C@H](NC(=O)[C@H](CO)NC(=O)[C@H](CCCCN)NC(=O)[C@H](CCCNC(=N)N)NC(=O)[C@@H]1CSSC[C@@H]2NC(=O)[C@H](C)NC(=O)[C@H](CCCNC(=N)N)NC(=O)[C@H](CCCCN)NC(=O)[C@H](CO)NC(=O)[C@H](CC(=O)O)NC(=O)[C@@H]3CSSC[C@H](NC(=O)[C@H](CCC(=O)O)NC(=O)[C@H](CC(C)C)NC(=O)CNC(=O)[C@H](CCC(=O)O)NC(=O)[C@H](CSSC[C@H](NC(=O)[C@@H](N)Cc4ccc(O)cc4)C(=O)N[C@@H](CCC(N)=O)C(=O)N[C@@H](CCCCN)C(=O)N[C@@H](Cc4c[nH]c5ccccc45)C(=O)N[C@@H](CCSC)C(=O)N[C@@H](Cc4c[nH]c5ccccc45)C(=O)N[C@@H]([C@@H](C)O)C(=O)N3)NC2=O)C(=O)N[C@@H](CCCCN)C(=O)N[C@@H](CC(C)C)C(=O)N[C@@H](Cc2c[nH]c3ccccc23)C(=O)N1)C(N)=O [SEQ ID NO: 138, [Glu20;Ser28]JzTx-V(1-29)]
- % Peptide Remaining [20]: 100%
- % Peptide Remaining [21]: 100%
- remaining at 2 h (in vitro [22]): 86%
- remaining at 4 h (in vitro [22]): 82%
- remaining at 6 h (in vitro [22]): 72%
- remaining at 8 h (in vitro [22]): 68%
- remaining at 24 h (in vitro [22]): 49%
- remaining at 2 h (in vitro [23]): 78%
- remaining at 4 h (in vitro [23]): 75%
- remaining at 6 h (in vitro [23]): 69%
- remaining at 8 h (in vitro [23]): 62%
- remaining at 24 h (in vitro [23]): 59%
